Earlier results, collected in paper PMC8508678, “Novel P2X7 Antagonist Ameliorates the Early Phase of ALS Disease and Decreases Inflammation and Autophagy in SOD1-G93A Mouse Model” (International Journal of Molecular Sciences, 2021).
Read-outs that look alike come from different tables or passages of the source.

Experiments:
SOD1-G93A mice [1] = tested on: SOD1-G93A mice; parameters: key to Motor Neuron loss: The symbol ↑ refers to upregulation; ↓ to downregulation; = indicates no change with respect to the vehicle-treated SOD1-G93A mice
SOD1-G93A mice [2] = tested on: SOD1-G93A mice; parameters: key to NF-κB / NOX2 / P2X7 / ARG1 / CD68 / GFAP / LC3B-II: The symbol ↑ refers to upregulation; ↓ to downregulation; = indicates no change with respect to the vehicle-treated SOD1-G93A mice
SOD1-G93A mice [3] = tested on: SOD1-G93A mice; parameters: key to Motor behavior / Survival: The symbol ↑ refers to upregulation; ↓ to downregulation; = indicates no change with respect to the vehicle-treated SOD1-G93A mice
[4] = SOD1-G93A mice, vs vehicle ref 31
[5] = ALS mice, four times per week starting at post-natal day 60 ref 41
[6] = SOD1-G93A mice, vs vehicle ref 28, 29

In the case of `C[C@H](N=C(NC#N)Nc1cccc2ncccc12)c1ccccc1` [A804598], the “Motor Neuron loss” value (SOD1-G93A mice [1]; [4]) is listed as “=”, the “P2X7 expression levels in the spinal cord” value (SOD1-G93A mice [2]; SOD1-G93A mice ref 31) is listed as “failed to affect” and the “autophagic substrate p62 accumulating in vivo” value (SOD1-G93A mice [2]; SOD1-G93A mice ref 31) is listed as “decreases”. For the same compound, the “motor neuron loss or astrogliosis and microgliosis in the spinal cord” value (SOD1-G93A mice [2]; SOD1-G93A mice ref 31) was “neither A804598 nor AXX13 treatments affected”, the ARG1 (SOD1-G93A mice [2]; [4]) was “=” and the CD68 (SOD1-G93A mice [2]; [4]) was “=”. For the same compound, the GFAP (SOD1-G93A mice [2]; [4]) was “=”, the LC3B-II (SOD1-G93A mice [2]; [4]) was “=” and the NF-κB (SOD1-G93A mice [2]; [4]) was “=”. For the same compound, the NOX2 (SOD1-G93A mice [2]; [4]) was “=”, the P2X7 (SOD1-G93A mice [2]; [4]) was “=” and the “IL-1β mRNA expression” value (SOD1-G93A mice [2]; SOD1-G93A mice, only this inflammatory marker affected ref 31) was “downregulated”. For the same compound, the “amelioration of disease progression” value (SOD1-G93A mice [3]; SOD1-G93A mice ref 31) was “failed”, the Motor behavior (SOD1-G93A mice [3]; [4]) was “=” and the Survival (SOD1-G93A mice [3]; [4]) was “=”.

For `O=C(NCC1(N2CCN(c3ccccc3)CC2)CCOCC1)c1cccnc1Sc1ccccc1` [JNJ-47965567], the “disease onset, body weight loss and motor parameters” value (SOD1-G93A mice [3]; [5]) is given as “able to delay disease onset, reduce body weight loss, and improve the motor parameters”, the “survival or motor neuron number” value (SOD1-G93A mice [3]; [5]) is given as “without affecting” and the “survival, disease progression, molecular and cellular parameters of ALS” value (SOD1-G93A mice [3]; SOD1-G93A mice, three times per week from the early symptomatic phase ref 32) is given as “totally failed”.

For `CCOc1ccc(Nc2ccc(/C(=C3C=C/C(=[N+](/CC)Cc4cccc(S(=O)(=O)[O-])c4)C=C/3C)c3ccc(N(CC)Cc4cccc(S(=O)(=O)O)c4)cc3C)cc2)cc1` [BBG, brilliant blue G], the “motor neuron survival in the lumbar spinal cord” value (SOD1-G93A mice [1]; SOD1-G93A mice ref 29) is given as “enhances”, the microgliosis (SOD1-G93A mice [2]; SOD1-G93A mice ref 29) is given as “reduces” and the GFAP (SOD1-G93A mice [2]; [6]) is given as “=”. For the same compound, the P2X7 (SOD1-G93A mice [2]; [6]) was “=”, the disease onset (SOD1-G93A mice [3]; ALS mice, modest improvement in general conditions and motor performance ref 29) was “induces a delay of disease onset” and the Survival (SOD1-G93A mice [3]; [6]) was “=”.
